Test results: patent publication US12421217B2, “Pyrazine derivative or salt thereof, and use of same” (FUJIFILM Corporation, priority 2019, dated 2025)

Legend:
[1] = system: human acute myeloid leukemia cell line HL60; test: In vivo drug efficacy test in cancer-bearing mouse model with subcutaneous transplantation of HL60; details: NOD/scid mice, oral 10 to 30 mg/kg once daily for 10 days
Protocol: (Drug Efficacy Test in Cancer-Bearing Mouse Model with Subcutaneous Transplantation of HL60)
The human acute myeloid leukemia cell line HL60 (available from JCRB) was suspended in a mixture of RPMI-1640 medium and Matrigel (available from Corning Inc.), and then subcutaneously transplanted into 6-week-old female NOD/scid mice (available from CLEA Japan, Inc.). After confirming that the average tumor volume exceeded 200 mm^3, the test compound was dissolved in a solvent (1 equivalent sodium hydroxide solution) and orally administered to mice at a dose of 10 to 30 mg/kg once daily for 10 days. As a negative control, a solvent-administered group to which a 10 to 12 mmol/L sodium hydroxide solution was administered was provided. The tumor diameter was measured over time and the tumor volume was calculated. The tumor volume was calculated by measuring the major axis and the minor axis of the tumor and using the following expression. Tumor volume (mm^3)=[major axis (mm)×minor axis (mm)×minor axis (mm)]/2
T/C (%) was calculated from the average tumor volume of each group by the following expression, and the drug efficacy was evaluated. T/C (%)=(average tumor volume of drug-administered group)/(average tumor volume of solvent-administered group)×100%

[2] = system: human myeloid leukemia cell line HL60; test: Cell growth test (Cell Titer Glo); type: cell-based; details: HL-60, 72 h, HL60 cells, 3 days, read-out: Cell growth inhibitory effect (GI50)
Protocol: The cell growth test was carried out using the human myeloid leukemia cell line HL60 (available from ATCC, CRL-240). As a culture medium of HL60 cells, RPMI 1640 (available from FUJIFILM Wako Pure Chemical Corporation, 189-02025) supplemented with 10% fetal bovine serum (available from Thermo Fisher Scientific, Inc., 10437-028), and 1% penicillin-streptomycin (10,000 U/mL, available from Thermo Fisher Scientific, Inc., 15140-122) was used. HL60 cells were seeded on a 384-well plate (available from Corning Inc., 4588) at a cell density of 1×10^3 cells/20 μL/well. After culturing overnight, 5 μL of the test compound having a predetermined concentration was added, and 3 days later, 25 μL of Cell Titer Glo (registered trademark) Luminescent Cell Viability Assay (available from Promega Corporation, G7573) was added, and then the amount of luminescence was measured using an EnVision plate reader (available from PerkinElmer, Inc.). Since the amount of luminescence is proportional to the intracellular concentration of adenosine triphosphate (ATP), the amount of luminescence was used as an indicator of the number of viable cells. The growth inhibitory concentration for each test compound concentration was calculated by the following expression.
(§1) The growth inhibition rate at each test compound concentration was determined, and the 50% growth inhibitory concentration [GI50 (nmol/L)] was calculated using XLfit. Growth inhibition rate (%)=(amount of luminescence in test compound-added well)/(amount of luminescence in DMSO-added well)×100
The abbreviations in the table have the following meanings. • A: GI50 value<100 nmol/L • B: 100 nmol/L≤GI50 value<1,000 nmol/L • C: 1,000 nmol/L≤GI50 value

recombinant human DHODH = target: T1, recombinant human DHODH (Homo sapiens, UniProt Q02127); test: Enzyme reaction inhibition test (DHODH enzyme assay, DCIP quenching); type: biochemical; details: DCIP absorbance 600 nm, 50 minutes, read-out: Enzyme reaction inhibitory effect (IC50)
T1 construct: DHODH, 31-395 aa, Human, His tag, E. coli, ATGP1615; His tag; purchased ATGen Co. Ltd. ATGP1615; host or cells: E. coli
T1 sequence (Q02127 31-395): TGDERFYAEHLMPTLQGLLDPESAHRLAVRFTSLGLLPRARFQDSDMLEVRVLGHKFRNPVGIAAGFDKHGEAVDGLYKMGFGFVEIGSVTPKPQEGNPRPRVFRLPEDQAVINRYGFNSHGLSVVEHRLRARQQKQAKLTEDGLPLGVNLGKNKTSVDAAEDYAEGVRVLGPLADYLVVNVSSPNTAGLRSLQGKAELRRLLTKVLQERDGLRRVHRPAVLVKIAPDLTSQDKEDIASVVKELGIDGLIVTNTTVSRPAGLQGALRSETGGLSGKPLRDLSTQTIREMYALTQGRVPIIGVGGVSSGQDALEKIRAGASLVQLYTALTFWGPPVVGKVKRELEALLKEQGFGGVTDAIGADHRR
Protocol: The DHODH enzyme assay was carried out with reference to “Benjamin Bader, Wolfgang Knecht, Markus Fries, and Monika Loffler. Expression, Purification, and Characterization of Histidine-Tagged Rat and Human Flavoenzyme Dihydroorotate Dehydrogenase. Protein Expression and Purification, 1998, 13, 414-422.”
The DHODH activity was evaluated using an enzyme assay system that is coupled with an assay in which a blue coloring agent 2,6-dichlorophenol indophenol (DCIP, available from MP Biomedicals, LLC, MP150118) is quenched. Purified recombinant human DHODH (DHODH, 31-395 aa, Human, His tag, E. coli, ATGP1615) was purchased from ATGen Co. Ltd. The enzyme assay was carried out in a 384-well plate using a buffer solution containing 100 mmol/L Hepes (available from Dojindo Laboratories, 342-01375), 400 mmol/L NaCl (available from FUJIFILM Wako Pure Chemical Corporation, 191-01665), 10% Glycerol (available from FUJIFILM Wako Pure Chemical Corporation, 075-00616), 0.05% Triton X-100 (available from Sigma-Aldrich Co., LLC, T8787-100ML), 0.2 mmol/L Ubiquinone-10 (available from FUJIFILM Wako Pure Chemical Corporation, 216-00761), 0.1 mmol/L DHO (L-dihydroorotic acid, available from Sigma-Aldrich Co., LLC, D7128), 0.5% DMSO (dimethylsulfoxide, available from FUJIFILM Wako Pure Chemical Corporation, 047-29353), 0.175 μg/mL DHODH, and 0.12 mmol/L DCIP and having a pH adjusted to 8.0 by adding 5 mol/L potassium hydroxide (available from FUJIFILM Wako Pure Chemical Corporation, 168-21815). A test compound with a predetermined concentration was added using Biomek NX (available from Beckman Coulter Inc.), and the enzymatic reaction was started by adding the substrate. The enzyme activity was assessed by measuring the decrease in DCIP absorbance (600 nm) for 50 minutes using an EnVision plate-reading spectrophotometer (available from PerkinElmer, Inc.).
as §1, with “enzyme reaction” for “growth”, “enzyme reaction inhibition” for “growth inhibitory”, “[IC50” for “[GI50”, “Enzyme reaction” for “Growth”
The abbreviations in the table have the following meanings. • A: IC50 value<10 nmol/L • B: 10 nmol/L≤IC50 value<100 nmol/L • C: 100 nmol/L≤IC50 value

SMILES | GI50 [2] | IC50 (recombinant human DHODH) | tumor growth inhibition rate (T/C) [1]
O=C(O)c1nc(C2CC2)cnc1Nc1cccc(C2CCOCC2)c1OCC(F)(F)F [Example 4, 6-cyclopropyl-3-((3-(tetrahydro-2H-pyran-4-yl)-2-(2,2,2-trifluoroethoxy)phenyl)amino)pyrazine-2-carboxylic acid] | < 0.1 µM | < 0.01 µM | excellent tumor growth inhibition rate
C[C@H](Oc1c(Nc2ncc(C3CC3)nc2C(=O)O)cccc1C1CCOCC1)C(F)(F)F [Example 10, (S)-6-cyclopropyl-3-((3-(tetrahydro-2H-pyran-4-yl)-2-((1,1,1-trifluoropropan-2-yl)oxy)phenyl)amino)pyrazine-2-carboxylic acid] | < 0.1 µM | < 0.01 µM | excellent tumor growth inhibition rate
CCCc1c(Nc2ncc(C3CC3)nc2C(=O)O)cccc1C1CCOCC1 [Example 13, 6-cyclopropyl-3-((2-propyl-3-(tetrahydro-2H-pyran-4-yl)phenyl)amino)pyrazine-2-carboxylic acid] | < 0.1 µM | 0.01 to 0.1 µM | excellent tumor growth inhibition rate

Continued, in another order:

GI50 [2] | IC50 (recombinant human DHODH) | SMILES | tumor growth inhibition rate (T/C) [1]
< 0.1 µM | < 0.01 µM | O=C(O)c1nc(C2CC2)cnc1Nc1cccc(C2=CCOCC2)c1OCC(F)(F)F [Example 2, 6-cyclopropyl-3-((3-(3,6-dihydro-2H-pyran-4-yl)-2-(2,2,2-trifluoroethoxy)phenyl)amino)pyrazine-2-carboxylic acid] | excellent tumor growth inhibition rate
< 0.1 µM | < 0.01 µM | C[C@H](Oc1c(Nc2ncc(C3CC3)nc2C(=O)O)cccc1C1=CCOCC1)C(F)(F)F [Example 8, (S)-6-cyclopropyl-3-((3-(3,6-dihydro-2H-pyran-4-yl)-2-((1,1,1-trifluoropropan-2-yl)oxy)phenyl)amino)pyrazine-2-carboxylic acid] | excellent tumor growth inhibition rate
